Reference: US4272437A, “Antibacterial agents, and 4-thio azetidinone intermediates” (priority 1979, dated 1981)
Values after ≈ are worked out from the molar mass of the structure shown. Where two headings read alike, the source gives them in different places.

Columns and labels:
K. pneumoniae A-15130 = test: MIC, tube dilution, Klebsiella pneumoniae A15130; format: cell-based; settings: overnight 37° C.; for Minimum Inhibitory Concentration (M.I.C.): K. pneumoniae A15130; for MIC: Klebsiella pneumoniae, A15130, K. pneumoniae A15130, read-out: Minimum Inhibitory Concentration (M.I.C.)
Excerpt: (§1) Representative compounds of the present invention were subjected to in vitro antibiotic screening against a variety of microorganisms.

Str. faecalis A-20688 = test: MIC, tube dilution, Streptococcus faecalis A20688; format: cell-based; settings: overnight 37° C.; for Minimum Inhibitory Concentration (M.I.C.): Str. faecalis A20688; for MIC: Enterococcus faecalis, A20688, Str. faecalis A20688, read-out: Minimum Inhibitory Concentration (M.I.C.)
Excerpt: as §1

Pr. mirabilis A-9900 = test: MIC, tube dilution, Proteus mirabilis A9900; format: cell-based; settings: overnight 37° C.; for Minimum Inhibitory Concentration (M.I.C.): Proteus mirabilis A9900; for MIC: Proteus mirabilis, A9900, Proteus mirabilis A9900, read-out: Minimum Inhibitory Concentration (M.I.C.)
Excerpt: as §1

Staph. aureus A-9537 = test: MIC, tube dilution, Staphylococcus aureus A9537; format: cell-based; settings: overnight 37° C., Nutrient Broth; for Minimum Inhibitory Concentration (M.I.C.): Staph. aureus A9537; for MIC: Staphylococcus aureus, A9537, Staph. aureus A9537, read-out: Minimum Inhibitory Concentration (M.I.C.)
Excerpt: as §1

Ent. cloacae A-9659 = test: MIC, tube dilution, Enterobacter cloacae A9659; format: cell-based; settings: overnight 37° C.; for Minimum Inhibitory Concentration (M.I.C.): Enterobacter cloacae A9659; for MIC: Enterobacter cloacae, A9659, Enterobacter cloacae A9659, read-out: Minimum Inhibitory Concentration (M.I.C.)
Excerpt: as §1

[1] = tested on: Staph. aureus (Meth-Res) A-15097; test: MIC, tube dilution, Staphylococcus aureus A15097 (Meth-Res); format: cell-based; settings: overnight 37° C.; for MIC: Staphylococcus aureus
Excerpt: as §1

[2] = tested on: Staph. aureus A-9537 and 50% serum; test: MIC, tube dilution, Staph. aureus A9537 + 50% serum; format: cell-based, Staphylococcus aureus; settings: overnight 37° C.; for MIC: Staphylococcus aureus, read-out: Minimum Inhibitory Concentration (M.I.C.)
Excerpt: as §1

Str. pyogenes A-9604 = test: MIC, tube dilution, Streptococcus pyogenes A9604; format: cell-based; settings: overnight 37° C., Nutrient Broth; for Minimum Inhibitory Concentration (M.I.C.): Str. pyogenes A9604; for MIC: Streptococcus pyogenes, A9604, Str. pyogenes A9604, read-out: Minimum Inhibitory Concentration (M.I.C.)
Excerpt: as §1

E. coli A-15119 = test: MIC, tube dilution, Escherichia coli A15119; format: cell-based; settings: overnight 37° C.; for Minimum Inhibitory Concentration (M.I.C.): E. coli A15119; for MIC: Escherichia coli, A15119, E. coli A15119, read-out: Minimum Inhibitory Concentration (M.I.C.)
Excerpt: as §1

Ser. marcescens A-20019 = test: MIC, tube dilution, Serratia marcescens A20019; format: cell-based; settings: overnight 37° C.; for Minimum Inhibitory Concentration (M.I.C.): Serratia marcescens A20019; for MIC: Serratia marcescens, A20019, Serratia marcescens A20019, read-out: Minimum Inhibitory Concentration (M.I.C.)
Excerpt: as §1

[3] = tested on: Providencia stuartii A21205; test: MIC, tube dilution, Providencia stuartii (Pr. rettgeri) A21205; format: cell-based; settings: for Minimum Inhibitory Concentration (M.I.C.): Providencia stuartii (Pr. rettgeri) A21205; for MIC: Providencia stuartii
Excerpt: as §1

Pr. morganii A-15153 = test: MIC, tube dilution, Proteus morganii A15153; format: cell-based; settings: overnight 37° C.; for Minimum Inhibitory Concentration (M.I.C.): Proteus morganii A15153; for MIC: Morganella morganii, A15153, Proteus morganii A15153, read-out: Minimum Inhibitory Concentration (M.I.C.)
Excerpt: as §1

Str. pneumoniae A-9585 = test: MIC, tube dilution, Streptococcus pneumoniae A9585; format: cell-based; settings: overnight 37° C., Nutrient Broth; for Minimum Inhibitory Concentration (M.I.C.): Str. pneumoniae A9585
Excerpt: as §1

E. coli A-20341-1 = test: MIC, tube dilution, Escherichia coli A20341-1; format: cell-based
Excerpt: as §1

Ent. cloacae A-9656 = test: MIC, tube dilution, Enterobacter cloacae A9656; format: cell-based; settings: overnight 37° C.; for MIC: read-out: Minimum Inhibitory Concentration (M.I.C.)
Excerpt: as §1

Ps. aeruginosa A-9843A = test: MIC, tube dilution, Pseudomonas aeruginosa A9843A; format: cell-based; settings: overnight 37° C.; for MIC: Pseudomonas aeruginosa, A9843A, read-out: Minimum Inhibitory Concentration (M.I.C.), Pseudomonas aeruginosa A9843A
Excerpt: as §1

[4] = tested on: Staph. aureus (Pen-Res) A-9606; test: MIC, tube dilution, Staphylococcus aureus A9606 (Pen-Res); format: cell-based; settings: overnight 37° C.; for MIC: Staphylococcus aureus
Excerpt: as §1

[5] = tested on: Klebsiella species A20468; test: MIC, tube dilution, Klebsiella species A20468; format: cell-based; settings: Klebsiella species (K. pneumoniae) A20468, overnight 37° C.; for MIC: read-out: Minimum Inhibitory Concentration (M.I.C.)
Excerpt: as §1

Ps. aeruginosa A-21213 = test: MIC, tube dilution, Pseudomonas aeruginosa A21213; format: cell-based; settings: Pseudomonas aeruginosa A21213, overnight 37° C.; for MIC: read-out: Minimum Inhibitory Concentration (M.I.C.)
Excerpt: as §1

Pr. vulgaris A-9716 = test: MIC, tube dilution, Proteus vulgaris / Proteus mirabilis A9716; format: cell-based, Proteus vulgaris (name changed to Proteus mirabilis); settings: overnight 37° C.; for MIC: Proteus vulgaris; for Minimum Inhibitory Concentration (M.I.C.): Proteus vulgaris / Proteus mirabilis A9716
Excerpt: as §1

[6] = Staph. aureus A15097 (Meth-Res)
[7] = Staph. aureus A15097 (Meth-Res), read-out: Minimum Inhibitory Concentration (M.I.C.)
[8] = A21205, Providencia stuartii (Pr. rettgeri) A21205, overnight 37° C., read-out: Minimum Inhibitory Concentration (M.I.C.)
[9] = Escherichia coli, A203411, E. coli A20341-1; overnight 37° C.; read-out: Minimum Inhibitory Concentration (M.I.C.)
[10] = Enterobacter cloacae, A9656, Enterobacter cloacae A9656
[11] = Staph. aureus A9606 (Pen-Res), read-out: Minimum Inhibitory Concentration (M.I.C.)
[12] = Escherichia coli, A203411; E. coli A20341-1; overnight 37° C.; read-out: Minimum Inhibitory Concentration (M.I.C.)

Structure (SMILES)	Minimum Inhibitory Concentration (M.I.C.) (K. pneumoniae A-15130) [µg/mL]	Minimum Inhibitory Concentration (M.I.C.) (Str. faecalis A-20688) [µg/mL]	Minimum Inhibitory Concentration (M.I.C.) (Pr. mirabilis A-9900) [µg/mL]	Minimum Inhibitory Concentration (M.I.C.) (Staph. aureus A-9537) [µg/mL]	Minimum Inhibitory Concentration (M.I.C.) (Ent. cloacae A-9659) [µg/mL]	Minimum Inhibitory Concentration (M.I.C.) [1, 6] [µg/mL]	Minimum Inhibitory Concentration (M.I.C.) [2] [µg/mL]	Minimum Inhibitory Concentration (M.I.C.) (Str. pyogenes A-9604) [µg/mL]	Minimum Inhibitory Concentration (M.I.C.) (E. coli A-15119) [µg/mL]	Minimum Inhibitory Concentration (M.I.C.) (Ent. cloacae A-9656; Enterobacter cloacae A9656) [µg/mL]	Minimum Inhibitory Concentration (M.I.C.) ([4]; Staph. aureus A9606 (Pen-Res)) [µg/mL]	MIC (K. pneumoniae A-15130) [µg/mL]	MIC (Str. faecalis A-20688) [µg/mL]	MIC (Pr. mirabilis A-9900) [µg/mL]	MIC (Ent. cloacae A-9659) [µg/mL]	MIC [2] [µg/mL]	MIC (E. coli A-15119) [µg/mL]	MIC (Ser. marcescens A-20019) [µg/mL]	MIC (Pr. morganii A-15153) [µg/mL]	MIC [5] [µg/mL]	further results
CCC1C(=O)N2C(C(=O)[O-])=C(C)S[C@H]12.[Na+] (stereo partly drawn) [1 (trans), Sodium 6-Ethyl-2-methylpenem-3-carboxylate]	> 125	> 125	125	8	> 125	8	> 63	4	125	> 125	8										Minimum Inhibitory Concentration (M.I.C.) (Ser. marcescens A-20019): > 125 µg/mL; Minimum Inhibitory Concentration (M.I.C.) ([3]; overnight 37° C.): 63 µg/mL; Minimum Inhibitory Concentration (M.I.C.) (Pr. morganii A-15153): > 125 µg/mL; Minimum Inhibitory Concentration (M.I.C.) (Str. pneumoniae A-9585): 2 µg/mL; Minimum Inhibitory Concentration (M.I.C.) (E. coli A-20341-1; E. coli A20341-1; overnight 37° C.): 125 µg/mL; Minimum Inhibitory Concentration (M.I.C.) (Ps. aeruginosa A-9843A; Pseudomonas aeruginosa A9843A): > 125 µg/mL; Minimum Inhibitory Concentration (M.I.C.) [5]: > 125 µg/mL; Minimum Inhibitory Concentration (M.I.C.) (Ps. aeruginosa A-21213): > 125 µg/mL
CC1=C(C(=O)O)N2C(=O)C(C(O)c3ccccc3)C2S1 (stereo not shown) [Example 4]												> 125	125 (≈ 429 µM)	63 (≈ 216 µM)	> 125	> 63	> 125	> 125	125 (≈ 429 µM)	> 125	MIC (Staph. aureus A-9537): 8 µg/mL (≈ 27.5 µM); MIC (Pr. vulgaris A-9716; A9716, Proteus vulgaris / Proteus mirabilis A9716, read-out: Minimum Inhibitory Concentration (M.I.C.)): 63 µg/mL (≈ 216 µM); MIC [1, 7]: 125 µg/mL (≈ 429 µM); MIC (Str. pyogenes A-9604): 4 µg/mL (≈ 13.7 µM); MIC [3, 8]: 125 µg/mL (≈ 429 µM); MIC (Str. pneumoniae A-9585; Streptococcus pneumoniae, A9585, Str. pneumoniae A9585, read-out: Minimum Inhibitory Concentration (M.I.C.)): 1 µg/mL (≈ 3.43 µM); MIC (E. coli A-20341-1; [9]): > 125 µg/mL; MIC (Ent. cloacae A-9656; [10]): > 125 µg/mL; MIC [4, 11]: 4 µg/mL (≈ 13.7 µM)
CC1=C(C(=O)O)N2C(=O)C[C@H]2S1 [Preparation 4(+), (+)-2-Methylpenem-3-carboxylic Acid]	8		4	0.5	8		4	0.25	4	8	0.5										Minimum Inhibitory Concentration (M.I.C.) (Pr. vulgaris A-9716): 4 µg/mL; Minimum Inhibitory Concentration (M.I.C.) (Ser. marcescens A-20019): 4 µg/mL; Minimum Inhibitory Concentration (M.I.C.) ([3]; overnight 37° C.): 4 µg/mL; Minimum Inhibitory Concentration (M.I.C.) (Pr. morganii A-15153): 8 µg/mL; Minimum Inhibitory Concentration (M.I.C.) (Str. pneumoniae A-9585): 0.06 µg/mL; Minimum Inhibitory Concentration (M.I.C.) [5]: > 125 µg/mL
CSCC1=C(C(=O)O)N2C(=O)C[C@H]2S1 [Preparation 9, 2-Methylthiomethylpenem-3-carboxylic Acid]		32				8				8	4	16 (≈ 69.2 µM)	63 (≈ 272 µM)	1 (≈ 4.32 µM)	4 (≈ 17.3 µM)	63	1 (≈ 4.32 µM)	4 (≈ 17.3 µM)	4 (≈ 17.3 µM)	> 125	MIC (Staph. aureus A-9537): 0.5 µg/mL (≈ 2.16 µM); MIC [1, 7]: 16 µg/mL (≈ 69.2 µM); MIC (Str. pyogenes A-9604): 0.25 µg/mL (≈ 1.08 µM); MIC [3, 8]: 2 µg/mL (≈ 8.65 µM); MIC (E. coli A-20341-1; [9]): 63 µg/mL (≈ 272 µM); MIC (E. coli A-20341-1; [12]): > 125 µg/mL; MIC (Ent. cloacae A-9656; [10]): 16 µg/mL (≈ 69.2 µM); MIC (Ps. aeruginosa A-9843A): > 125 µg/mL; MIC [4, 11]: 8 µg/mL (≈ 34.6 µM); MIC (Ps. aeruginosa A-21213): > 125 µg/mL
CCCCCC1=C(C(=O)[O-])N2C(=O)C[C@H]2S1.[K+] [Preparation 16, Potassium 2-Pentylpenem-3-carboxylate]			8									> 125	32	4	> 125	> 63	63	125	16	> 125	Minimum Inhibitory Concentration (M.I.C.) (Pr. vulgaris A-9716): 8 µg/mL; MIC (Pr. vulgaris A-9716; A9716, read-out: Minimum Inhibitory Concentration (M.I.C.), Proteus vulgaris / Proteus mirabilis A9716): 4 µg/mL; MIC ([1]; read-out: Minimum Inhibitory Concentration (M.I.C.), Staph. aureus A15097 (Meth-Res)): 125 µg/mL; MIC ([3]; A21205, read-out: Minimum Inhibitory Concentration (M.I.C.)): 16 µg/mL; MIC (E. coli A-20341-1; [12]): > 125 µg/mL; MIC (Ent. cloacae A-9656; Enterobacter cloacae A9656): 125 µg/mL; MIC (Ps. aeruginosa A-9843A): > 125 µg/mL; MIC ([4]; read-out: Minimum Inhibitory Concentration (M.I.C.), Staph. aureus A9606 (Pen-Res)): 4 µg/mL; MIC (Ps. aeruginosa A-21213): > 125 µg/mL
